Values of other authors, collected in US20100284985A1, “Composition” (Danisco A/S, priority 2007, published 2010).

Test system: common food spoilage yeasts and moulds
Conditions: most strains of common food spoilage yeasts and moulds; cited from earlier work

C[C@@H]1C/C=C/C=C/C=C/C=C/[C@H](O[C@@H]2O[C@H](C)[C@@H](O)[C@H](N)[C@@H]2O)C[C@@H]2O[C@](O)(C[C@@H](O)C[C@H]3O[C@@H]3/C=C/C(=O)O1)C[C@H](O)[C@H]2C(=O)O [natamycin]
concentrations inhibiting most strains: 1-15 ppm
